Results taken from PubChem BioAssay (NCI).
Several values for one entry are separate records, joined by “and”; a condition that tells them apart may be missing. Equal values may be shown once.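 Step 1: Grow cells in 96-well plates. Step 2: Expose to compound for 48 hours at 5 concentrations. Step 3: Interpolate endpoints linearly; if unreached, use highest concentration. The concentration for 50% growth inhibition is given as GI50. Definition used: TGI = concentration required for complete inhibition of growth.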

What was measured:
Assay in all cases: NCI tumour cell line growth inhibition, 48 h
[1] = system: IGROV1 ovarian
[2] = system: MOLT-4 leukemia
[3] = system: K-562 leukemia
[4] = system: TK-10 renal
[5] = system: NCI-H23 lung
[6] = system: 786-0 renal
[7] = system: SN12C renal
[8] = system: MALME-3M melanoma
[9] = system: RXF 393 renal
[10] = system: SK-MEL-2 melanoma

Structure (SMILES)	TGI [1]	TGI [2]	TGI [3]	TGI [4]	TGI [5]	TGI [6]	TGI [7]	TGI [8]	TGI [9]	TGI [10]	GI50 [1]	GI50 [2]	GI50 [3]	GI50 [4]	GI50 [8]	GI50 [6]	GI50 [10]	GI50 [9]	GI50 [7]	GI50 [5]
C[C@H](CSC(=O)c1ccccc1)C(=O)N1c2ccccc2C[C@H]1C(=O)O	> 100 µM	> 100 µM	> 100 µM	> 100 µM	> 100 µM	> 10 µM	> 100 µM													
COc1cc(Oc2c(O)c(C)c(OC)c(C(C)=O)c2O)c(C(C)=O)c(O)c1C	> 100 µM			86.7 µM	94.9 µM	> 100 µM	> 100 µM	> 100 µM	> 100 µM											
FC(F)(F)c1ccc2nc(Nc3ccc(Cl)c(Cl)c3)c(-c3ccccc3)nc2c1		> 100 µM		> 100 µM	> 100 µM	> 100 µM	> 100 µM	> 100 µM	> 100 µM	> 100 µM										
Cn1cc(-c2ccc(CNc3cc(-c4cnc5cc(OCCCN6CCCC6)ccn45)ncn3)cc2)cn1	4.27 µM	> 100 µM	> 100 µM	39.1 µM		2.91 µM	3.61 µM	2.94 µM	3.33 µM	30.4 µM	2.05 µM	2.76 µM	2.62 µM	23.7 µM	1.28 µM	1.49 µM	15.5 µM	1.61 µM	1.82 µM	
C=C(C)[C@@H]1CC[C@@]2(C)[C@H]1[C@H]1CCC3[C@@]4(C)CC[C@H](O)C(C)(C)[C@@H]4CC[C@@]3(C)[C@]1(C)C[C@@H]2O (stereo not given in full)	> 100 µM	> 100 µM	47.7 µM	> 100 µM	> 100 µM	> 100 µM	> 100 µM	> 100 µM	> 100 µM											
Cc1cn2c(/C=N/N/C(N)=N\N)c(-c3ccc(Cl)c([N+](=O)[O-])c3)nc2s1	37.8 µM		> 50 µM	30.7 µM	20 µM	1.73 µM	4.09 µM			23.4 µM	3.55 µM		2.17 µM	5.82 µM		0.859 µM	7.63 µM		1.27 µM	4.18 µM
Cc1c2ccncc2c(C)c2c1[nH]c1ccc(OC(C)(C)C)cc12	26.8 µM	4.66 µM	4.93 µM	18.1 µM	24.9 µM	2.96 µM		3.31 µM		3.88 µM										
O=C(Nc1cc(Cl)c(Cl)cc1Cl)C(=O)C(C(=O)c1ccc(Cl)c(Cl)c1)C1OC(=O)c2ccccc21 (stereo not given)		> 100 µM	63.9 µM	52 µM		27.3 µM	52.3 µM		21.9 µM	28.6 µM										
O=C1CC2C(=O)N(Cc3ccccc3)C1C(S(=O)(=O)c1ccccc1)C2S(=O)(=O)c1ccccc1 (stereo not given)	36 µM	7.72 µM	6.66 µM	3.95 µM	10.7 µM	9.68 µM	3.18 µM	3.87 µM	3.5 µM											
CCc1c2c(nc3cccc(N)c13)-c1cc3c(c(=O)n1C2)COC(=O)[C@]3(O)CC	20.8 µM	0.15 µM	> 100 µM	0.748 µM		1.62 µM	38.7 µM	2.3 µM and 3.11 µM			0.137 µM and 0.0298 µM	< 0.001 µM	0.00244 µM		0.0448 µM and 0.011 µM	< 0.001 µM		0.0636 µM	< 0.001 µM	0.00327 µM
CCOC(=O)/C(C#N)=C1\N[C@H](C(=O)OCC)CO1	> 100 µM	> 100 µM	> 100 µM		> 100 µM	> 100 µM	> 100 µM	> 100 µM	> 100 µM	62.6 µM										
COC(=O)[C@]1(C)CCC[C@@]2(C)C1CCC1=C[C@@]3(C(C)C)CC[C@]12OO3 (stereo not given in full)	> 100 µM	83.1 µM	> 100 µM	> 100 µM	> 100 µM	40.9 µM	> 100 µM	> 100 µM		> 100 µM										
COc1ccc(-c2ccc(/C=N/n3c(COc4ccc(Cl)cc4)n[nH]c3=S)o2)c([N+](=O)[O-])c1		75.4 µM	53.4 µM	37.1 µM	33.7 µM	44.7 µM	53.4 µM	37 µM	32.3 µM	> 100 µM		16.5 µM	11.6 µM	14.6 µM	14.1 µM	18.4 µM	41.9 µM	12.7 µM	19.9 µM	13.8 µM
CC1=CC(=O)C(C(C)=Nc2ccccc2Cl)C(=O)O1 (stereo not given)	> 100 µM	> 100 µM	> 100 µM	> 100 µM	> 100 µM	> 100 µM	> 100 µM	> 100 µM	> 100 µM		76.2 µM	> 100 µM	> 100 µM	> 100 µM	> 100 µM	> 100 µM		> 100 µM	> 100 µM	> 100 µM
O=[N+]([O-])c1nccn1CC1OC(n2ccnc2[N+](=O)[O-])C(O)C(O)C1O (stereo not given)		> 100 µM	> 100 µM	> 100 µM	> 100 µM	> 100 µM		> 100 µM	> 100 µM	> 100 µM										
C/C1=C\CC[C@@](C)(O)[C@@H]2CC3[C@@H](OC(=O)C34CC4)[C@@H](O2)[C@H](C)CCC1 (stereo not given in full)	24.1 µM	> 100 µM	> 100 µM			29.8 µM	43.5 µM	39.3 µM		34.4 µM	6.48 µM	39.2 µM	35.1 µM		13.5 µM	16.2 µM	16.2 µM		20.3 µM	
O=C(Nc1ccc2c(c1)oc(=O)c1ccccc12)C(Cl)Cl	> 100 µM	> 100 µM	> 100 µM		> 100 µM	> 100 µM	> 100 µM	> 100 µM	> 100 µM	> 100 µM										
O=C(O)c1c[nH]cc1C(=O)O	> 100 µM	> 100 µM	> 100 µM	> 100 µM	> 100 µM	> 100 µM	> 100 µM	> 100 µM	> 100 µM											
CC(C)[C@@H](COC(C)(C)C)N=CN1CCc2c([nH]c3ccccc23)C1	> 100 µM	> 100 µM	> 100 µM	> 100 µM	> 100 µM	> 100 µM	> 100 µM		> 100 µM	> 100 µM										
